Experiments:
secretion of FlgD = assay: Secretion assay (Western blot of culture supernatant with anti-FlgD antibody); assay type: cell-based, Salmonella typhimurium; conditions: supernatant of 8.0 hr culture from the growth assay, strain SJW1103; FIG. 7a and 7b
Experimental: Then, effects of the selected compounds on different type III secretion phenotypes were assessed. 1 ml of the cell suspensions of 8.0 hr culture in the above-growth assay were centrifuged at 13,200 rpm (16,100 g) for 10 min. The supernatant fractions (0.9 ml) were fractionated into new tubes and mixed with 100% trichloroacetic acid thoroughly. The fractions were kept on ice at least 1 h to precipitate secreted proteins. After centrifugation at 15,400 rpm for 30 min, the precipitated supernatant fractions were resuspended in 0.02 ml of 1 M Tris base and stored −30° C. until use. Samples for SDS-PAGE analysis were prepared by adding 5× SDS loading Buffer and then heat at 95° C. for 5 min. SDS-PAGE analyses were carried out at the condition of 200V for 30 min using premade gels purchased from Bio-rad. Electro-blotting onto PVDF membrane was performed with iBlot from Invitrogen and the membranes were developed with Chromogenic Immuno-detection Kit (Invitrogen) using a custom antibody raised against FlgD, a flagellar protein (from Prof. Keiichi Namba, Osaka University). Images were digitized as gray scale color with ChemDoc (Bio-rad). Kaleidoscope (Bio-rad) was used as a molecular marker.

[1] = system: Salmonella typhimurium strain SJW1103; assay: Bacterial growth assay; assay type: cell-based; conditions: 5 μl of 100 mM compound in DMSO added to 10 ml LB, 303 K, OD600 read at 2, 4, 6, 8 and 10 hr; FIG. 6
Experimental: The effect of the candidate compounds on the viability of bacteria cultures were first tested before analyzing their effect on the flexibility of FlhBC. 80 compounds out of the 237 compounds were purchased from KISHIDA CHEMICAL Co., Ltd according to the ranking. The Salmonella typhimurium strain SJW1103 was grown in LB medium at 303 K. Overnight cultures were diluted in Fresh LB medium to an optical density at 600 nm (OD600) of 0.1. Each of 5 μl of 100 mM candidate compounds solubilized in DMSO or DMSO alone as a control was added into 10 ml LB medium in 50-ml volume polypropylene conical tubes. For obtaining growth curves of the cell under the presence of each chemical, 0.2 ml of the culture volume were removed at every 2 h (2, 4, 6, 8 and 10 hr) and diluted with 1 ml of LB to measure absorbance at OD600.

Structure (SMILES)	inhibition of FlgD secretion (type III secretion system) (secretion of FlgD)	effect on bacterial growth (growth curve, OD600) [1]
Cn1c(=O)c2c(ncn2CC(O)CO)n(C)c1=O (stereo not shown) [compound 47, 7-(2,3-dihydroxypropyl)-1,3-dimethyl-3,7-dihydro-1H-purine-2,6-dione]	inhibit the secretion of FlgD	slight growth delay
COc1cc(Cc2cnc(N)nc2N)cc(OC)c1OC [compound 64, 5-(3,4,5-Trimethoxybenzyl)pyrimidine-2,4-diamine]	inhibit the secretion of FlgD	slight growth delay

Source: US9809595B2 (priority 2013, dated 2017)
